In BindingDB's records for doi:10.7270/Q2930WC4 (n/a, 1995):

Biological target: Alpha-2 adrenergic receptor (Rattus norvegicus)
Experiment: Compound was tested for its binding affinity against Alpha-2 adrenergic receptor

Which Ki does the source give for `CCCN(CCCCCCN1CCC[C@@H]1Cc1ccc(O)c(O)c1)CCc1ccc(O)c(O)c1` here?
Its Ki is 302 nM.
